{"source": "patent US20140308675A1", "about": "“MUTAGENICITY TEST METHOD USING MAMMALIAN CELLS” (NISSIN FOODS HOLDINGS CO., LTD., priority 2011, published 2014)", "key": {"[1]": {"tested_on": "TK6 cells transfected with pGL4-p53R2×3-SV40-Luc2", "test": "Mutagenicity test: luciferase reporter, transient pGL4-p53R2×3-SV40-Luc2 transformant", "type": "cell-based, human", "conditions": "0.003-0.7 μg/mL", "protocol": "Wild-type p53 of a human lymphoblast cell line TK6 cell was confirmed to be normal by DNA sequencing (ABI Prism BigDye Terminater v3.0; manufactured by Applied Biosystems) using primers for sequencing 5′-ACACGCTTCCCTGGATTG-3′ (SEQ ID NO: 17) and 5′-[…]-3′ (SEQ ID NO: 18).\nIt should be noted that the amount of pGL4-p53R2×3-SV40-Luc2 for transfection was adjusted to 0.25 ng/well.\nNext, after the removal of the medium, a cell lysis solution (manufactured by Promega) was added at 25 μl/well, and the whole was left to stand at room temperature for 15 minutes. The plate was set in a luminometer LB96P with an enzyme substrate automatic injector (manufactured by Berthold), and a substrate solution (manufactured by Promega) was automatically dispensed at 30 μL/well to measure luciferase activities.\nWild-type p53 of a human lymphoblast cell line TK6 was confirmed to be normal in the same manner as described above. […] It should be noted that the amount of pGL4-p53R2×3-SV40-Luc2 for transfection was adjusted to 0.25 ng/well."}, "[2]": {"tested_on": "TK6 cells transfected with PGV-p53R2×3-Luc", "test": "Mutagenicity test: luciferase reporter, transient PGV-p53R2×3-Luc transformant", "type": "cell-based, human", "conditions": "TK6, PGV-p53R2×3-Luc", "protocol": "Next, the same operation as described above was performed to measure luciferase activities except that the plasmid PGV-p53R2×3-Luc prepared in Example 1 of JP 4243716 B2 was used in place of pGL4-p53R2×3-SV40-Luc2.\n(§1) Transfection with plasmid PGV-p53R2×3-Luc, culture, and luciferase activity measurement were performed in the same manner as in Reference Example 1 described above except that the transformant was cultured for the following culture time: 16 hours in TK6 cells; 24 hours in MCF-7, HepG2, A549, HCT116, and HEK293; and 18 hours in NB1RGB."}, "[3]": {"tested_on": "MCF-7 cells transfected with pGL4-p53R2×3-SV40-Luc2", "test": "Luciferase reporter, pGL4-p53R2×3-SV40-Luc2 transformant of MCF-7", "type": "cell-based, human", "conditions": "MCF-7, pGL4-p53R2×3-SV40-Luc2; 8 hours after contact; FIG. 4", "excerpt": "(§2) The obtained various transformants of the MCF-7 cells, the HepG2 cells, the A549 cells, the HCT116 cells, the HEK293 cells, and the NB1RGB cells were used to measure luciferase activities in the same manner as in the TK6 cells."}, "[4]": {"tested_on": "HepG2 cells transfected with pGL4-p53R2×3-SV40-Luc2", "test": "Luciferase reporter, pGL4-p53R2×3-SV40-Luc2 transformant of HepG2", "type": "cell-based, human", "conditions": "HepG2, pGL4-p53R2×3-SV40-Luc2; 8 hours after contact; FIG. 4", "excerpt": "as §2"}, "[5]": {"tested_on": "A549 cells transfected with pGL4-p53R2×3-SV40-Luc2", "test": "Luciferase reporter, pGL4-p53R2×3-SV40-Luc2 transformant of A549", "type": "cell-based, human", "conditions": "A549, pGL4-p53R2×3-SV40-Luc2; 8 hours after contact; FIG. 4", "excerpt": "as §2"}, "[6]": {"tested_on": "HCT116 cells transfected with pGL4-p53R2×3-SV40-Luc2", "test": "Luciferase reporter, pGL4-p53R2×3-SV40-Luc2 transformant of HCT116", "type": "cell-based, human", "conditions": "HCT116, pGL4-p53R2×3-SV40-Luc2; 8 hours after contact; FIG. 4", "excerpt": "as §2"}, "[7]": {"tested_on": "HEK293 cells transfected with pGL4-p53R2×3-SV40-Luc2", "test": "Luciferase reporter, pGL4-p53R2×3-SV40-Luc2 transformant of HEK293", "type": "cell-based, human", "conditions": "HEK293, pGL4-p53R2×3-SV40-Luc2; 8 hours after contact; FIG. 4", "excerpt": "as §2"}, "[8]": {"tested_on": "NB1RGB cells transfected with pGL4-p53R2×3-SV40-Luc2", "test": "Luciferase reporter, pGL4-p53R2×3-SV40-Luc2 transformant of NB1RGB", "type": "cell-based, human", "conditions": "8 hours after contact, FIG. 4", "excerpt": "as §2"}, "[9]": {"tested_on": "MCF-7 cells transfected with PGV-p53R2×3-Luc", "test": "Luciferase reporter, PGV-p53R2×3-Luc transformant of MCF-7", "type": "cell-based, human", "conditions": "MCF-7, PGV-p53R2×3-Luc", "protocol": "(§3) To the obtained various transformants of MCF-7, HepG2, A549, HCT116, HEK293, and NB1RGB, adriamycin dissolved in DMSO was added, followed by culture for 8 hours. After that, luciferase activities were measured in the same manner as in the TK6 cells.\nas §1"}, "[10]": {"tested_on": "HepG2 cells transfected with PGV-p53R2×3-Luc", "test": "Luciferase reporter, PGV-p53R2×3-Luc transformant of HepG2", "type": "cell-based, human", "conditions": "HepG2, PGV-p53R2×3-Luc", "protocol": "as §3, §1"}, "[11]": {"tested_on": "A549 cells transfected with PGV-p53R2×3-Luc", "test": "Luciferase reporter, PGV-p53R2×3-Luc transformant of A549", "type": "cell-based, human", "conditions": "A549, PGV-p53R2×3-Luc", "protocol": "as §3, §1"}, "[12]": {"tested_on": "HCT116 cells transfected with PGV-p53R2×3-Luc", "test": "Luciferase reporter, PGV-p53R2×3-Luc transformant of HCT116", "type": "cell-based, human", "conditions": "HCT116, PGV-p53R2×3-Luc", "protocol": "as §3, §1"}, "[13]": {"tested_on": "HEK293 cells transfected with PGV-p53R2×3-Luc", "test": "Luciferase reporter, PGV-p53R2×3-Luc transformant of HEK293", "type": "cell-based, human", "conditions": "HEK293, PGV-p53R2×3-Luc", "protocol": "as §3, §1"}, "[14]": {"tested_on": "NB1RGB cells transfected with PGV-p53R2×3-Luc", "test": "Luciferase reporter, PGV-p53R2×3-Luc transformant of NB1RGB", "type": "cell-based, human", "protocol": "as §3, §1"}, "[15]": {"tested_on": "stable expression cells TK6/p53R2×3-Luc2P", "test": "Mutagenicity test: luciferase reporter, stable expression cells TK6/p53R2×3-Luc2P"}, "[16]": {"tested_on": "cells TK6/p53R2×3-Luc2P/Rluc", "test": "Mutagenicity test with internal control, cells TK6/p53R2×3-Luc2P/Rluc", "type": "cell-based, human", "conditions": "0.1-20 μg/mL; 6 hours; FIG. 11", "protocol": "Next, in accordance with the method of Example 8, cells stably expressing Luc2P and Rluc were acquired and named TK6/p53R2×3-Luc2P/Rluc.\nNext, the above-mentioned two kinds of cells were brought into contact with 5-aza-2′-deoxycytidine (5-aza-dC).\nAfter the removal of the medium, the expression amount of the Luc2P gene was determined as a relative value to the expression amount of the Rluc gene. Specifically, through the use of a luminometer LB96P with an enzyme substrate automatic injector (manufactured by Berthold), first, a substrate solution for firefly luciferase measurement (manufactured by Promega) was dispensed at 30 μL/well to measure the expression amount of the Luc2P gene. After that, a substrate solution for Sea pansy luciferase measurement (manufactured by Promega) was further dispensed at 30 μL/well to determine the expression amount of the Rluc gene."}}, "note": "Entries after “also recorded” stand apart in the source; their conditions may differ."}
{"smiles": "COc1cccc2c1C(=O)c1c(O)c3c(c(O)c1C2=O)C[C@@](O)(C(=O)CO)C[C@@H]3O[C@H]1C[C@H](N)[C@H](O)[C@H](C)O1", "note": "[adriamycin]", "values": [{"measurement": "Luciferase activity (% of Solvent control)", "setting": "[1]; contact for 4 hours", "value": "such an increase in luciferase activity due to an increase in concentration of adriamycin as to be sufficient for performing a mutagenicity test"}, {"measurement": "Luciferase activity (% of Solvent control)", "setting": "[1]; contact for 8 hours", "value": "very high luciferase activity"}, {"measurement": "Luciferase activity (% of Solvent control)", "setting": "[1]; dependence on concentration, FIG. 3", "value": "an increase in luciferase activity due to an increase in concentration of adriamycin"}, {"measurement": "Luciferase activity (% of Solvent control)", "setting": "[2]; 0.003-0.7 μg/mL, contact for 8 hours", "value": "very small luciferase activity; also recorded: only a slight increase in luciferase activity"}, {"measurement": "Luciferase activity (% of Solvent control)", "setting": "[2]; culture 16 hours, FIG. 6", "value": "high luciferase activity"}, {"measurement": "Luciferase activity (% of Solvent control)", "setting": "[3]", "value": "only slight luciferase activity"}, {"measurement": "Luciferase activity (% of Solvent control)", "setting": "[4]", "value": "only slight luciferase activity"}, {"measurement": "Luciferase activity (% of Solvent control)", "setting": "[5]", "value": "only slight luciferase activity"}, {"measurement": "Luciferase activity (% of Solvent control)", "setting": "[6]", "value": "only slight luciferase activity"}, {"measurement": "Luciferase activity (% of Solvent control)", "setting": "[7]", "value": "only slight luciferase activity"}, {"measurement": "Luciferase activity (% of Solvent control)", "setting": "[8]", "value": "only slight luciferase activity"}, {"measurement": "Luciferase activity (% of Solvent control)", "setting": "[9]; contact for 8 hours, FIG. 5", "value": "only a slight increase in luciferase activity"}, {"measurement": "Luciferase activity (% of Solvent control)", "setting": "[9]; culture 24 hours, FIG. 6", "value": "high luciferase activity"}, {"measurement": "Luciferase activity compared with the other cells", "setting": "[9]; culture 24 hours, FIG. 6", "value": "higher luciferase activities"}, {"measurement": "Luciferase activity (% of Solvent control)", "setting": "[10]; contact for 8 hours, FIG. 5", "value": "only a slight increase in luciferase activity"}, {"measurement": "Luciferase activity (% of Solvent control)", "setting": "[10]; culture 24 hours, FIG. 6", "value": "high luciferase activity"}, {"measurement": "Luciferase activity compared with the other cells", "setting": "[10]; culture 24 hours, FIG. 6", "value": "higher luciferase activities"}, {"measurement": "Luciferase activity (% of Solvent control)", "setting": "[11]; contact for 8 hours, FIG. 5", "value": "only a slight increase in luciferase activity"}, {"measurement": "Luciferase activity (% of Solvent control)", "setting": "[11]; culture 24 hours, FIG. 6", "value": "high luciferase activity"}, {"measurement": "Luciferase activity (% of Solvent control)", "setting": "[12]; contact for 8 hours, FIG. 5", "value": "only a slight increase in luciferase activity"}, {"measurement": "Luciferase activity (% of Solvent control)", "setting": "[12]; culture 24 hours, FIG. 6", "value": "high luciferase activity"}, {"measurement": "Luciferase activity (% of Solvent control)", "setting": "[13]; contact for 8 hours, FIG. 5", "value": "only a slight increase in luciferase activity"}, {"measurement": "Luciferase activity (% of Solvent control)", "setting": "[13]; culture 24 hours, FIG. 6", "value": "high luciferase activity"}, {"measurement": "Luciferase activity (% of Solvent control)", "setting": "[14]; contact for 8 hours, FIG. 5", "value": "only a slight increase in luciferase activity"}, {"measurement": "Luciferase activity (% of Solvent control)", "setting": "[14]; culture 18 hours, FIG. 6", "value": "high luciferase activity"}, {"measurement": "Luciferase activity (% of Solvent control), time-dependent change", "setting": "[15]; 0.2 μg/mL, 2, 4, 6 and 8 hours, FIG. 9", "value": "an increase in luciferase activity due to an increase in concentration of adriamycin"}, {"measurement": "Luciferase activity (% of Solvent control)", "setting": "[15]; 0.003-0.7 μg/mL, 6 hours, FIG. 10", "value": "an increase in luciferase activity due to an increase in concentration of adriamycin"}]}
{"smiles": "Nc1ncn([C@H]2C[C@H](O)[C@@H](CO)O2)c(=O)n1", "note": "[5-aza-dC, 5-aza-2′-deoxycytidine]", "values": [{"measurement": "Firefly luciferase (Luc2P) activity not corrected with Rluc activity (w/o internal control)", "setting": "[16]", "value": "an increase in measured value due to an increase in concentration of 5-aza-dC"}, {"measurement": "Luc2P activity corrected with Rluc activity as an internal control (with internal control)", "setting": "[16]", "value": "no increase in measured value"}]}
